Results as given in patent US11628146B2, “Estrogen receptor ligand treatment for neurodegenerative diseases” (The Regents of the University of California, priority 2014, dated 2023).
“Also recorded” adds a separate entry of the source.

Tests used:
[1] = tested on: healthy female C57BL/6 mice (no EAE induced); assay: Morris water maze (spatial memory) in ovariectomized mice; format: in vivo, mouse; conditions: for Morris water maze learning (time in target quadrant): ovariectomized, estriol-treated mice (OVX-Estriol) vs OVX-Placebo
Experimental: FIG. 25. Peripheral estrogens improve performance on the Morris water maze via ERβ expressed on neurons. Healthy female C57BL/6 (with no EAE induced) were tested for cognitive performance (spatial memory) using the Morris water maze, whereby mice learn to spend more time in a target quadrant (TQ) as compared to three other quadrants (OQ). […] (Bottom graph) To determine (a) whether ER beta is required for proper learning and, more specifically, (b) whether ER beta expression in neurons is required for learning, mice were generated that had ER beta conditionally knocked out using CreLox technology, with Cre driving the knock out in neurons via the neuron-specific enolase (NSE) promoter. […] (***p≤0.001, ANOVA-Sidak's posttest). […] The dashed line on the graphs indicates the time expected to be spent in a quadrant by random chance in the absence of learning (25%).

[2] = tested on: EAE in C57BL/6 mice; conditions: DPN in Miglyol carrier; previous work; cited from earlier work
[3] = tested on: spinal cords of C57BL/6 females with EAE; conditions: DPN; previous experiments; cited from earlier work
[4] = Dissolution of the compound in the oil vehicle; format: physicochemical; conditions: DPN; needed ethanol first
Experimental: (§1) Reagents. AC-186 was dissolved in either Miglyol 812N liquid oil (Sasol North America) or sesame oil (Sigma Aldrich) as following concentration; 1.5 mg/mL for 3 mg/kg group, 5 mg/mL for 10 mg/kg group, and 15 mg/mL for 30 mg/kg group. Diarylpropionitrile (DPN, Tocris Biosciences) was dissolved in 10% molecular-grade ethanol and diluted with 90% of either Miglyol 812N liquid oil or sesame oil.
Three doses of the AC-186 compound were tested in C57BL6 female mice: low (3 mg/kg, every other day), medium (10 mg/kg, every other day), and high (30 mg/kg, every other day), each injected subcutaneously in a sesame oil vehicle. The ERβ ligand diarylpropionitrile (DPN) was tested as a positive control because DPN can partially ameliorate EAE and because the treatment effects in EAE experiments can vary based on the level of disease severity within an experiment. Direct comparisons between treatments were only made between treatment groups within a single EAE experiment and not between treatment groups of different EAE experiments. […] The difference in improvement between the 30 mg/kg AC-186 group and all other groups increased with time.

[5] = tested on: EAE in NOD mice; assay: Standard EAE clinical score (0-5 scale), MOG-induced EAE, NOD mice; format: in vivo, mouse; conditions: NOD females; DPN in miglyol vehicle; vs vehicle
From the text: (§2) Animals. C57BL/6 and NOD mice 8 weeks old were purchased from Jackson Laboratories (Bar Harbor, Me.). Animals were maintained under environmentally controlled conditions in a 12-hour light/dark cycle with access to food and water ad libitum. All procedures were done in accordance with the guidelines of the National Institutes of Health and the Chancellor's Animal Research Committee of the University of California, Los Angeles Office for the Protection of Research Subjects.
as §1
(§3) EAE and Treatments. Animals were injected subcutaneously with Myelin Oligodendrocyte Glycoprotein (MOG), amino acids 35-55 (200 μg/animal, American Peptides), emulsified in complete Freund's adjuvant (CFA) and supplemented with Mycobacterium tuberculosis H37ra (300 μg/animal, Difco Laboratories), over two sites drained by left inguinal and auxiliary lymph nodes in a total volume of 0.1 ml/mouse. One week later, a booster immunization was delivered over contra lateral lymph nodes. Pertussis toxin (500 ng/mouse) (List Biological Laboratories, Inc.) was injected intraperitoneally on days 0 and 2. Animals were monitored daily for EAE signs based on a standard EAE 0-5 scale scoring system: 0—healthy, 1—complete loss of tail tonicity, 2—loss of righting reflex, 3—partial paralysis, 4—complete paralysis of one or both hind limbs, and 5—moribund. Animals received 0.05 ml of either of 1.5, 5, 15 mg/mL AC-186, vehicle (sesame oil or Miglyol 812N liquid oil), or DPN (8 mg/kg/day) via subcutaneous injections every other day. Animals were treated with AC-186 or vehicle after EAE induction. Specifically, treatment was initiated at the first clear signs of clinical disease (EAE day 13-15), and continued to the endpoint of the experiment.

[6] = tested on: EAE in C57BL/6 mice; assay: Rotarod testing of motor coordination and balance in EAE, C57BL/6 mice; format: in vivo, mouse; conditions: DPN in 10% ethanol/miglyol vs miglyol vehicle (FIG. 4; strain not given)
Experimental: Rotarod Testing. Motor behavior was tested up to two times per week for each mouse using a rotarod apparatus (Med Associates Inc., St. Albans, Vt.). Briefly, animals were placed on a rotating horizontal cylinder for a maximum of 200 seconds. The amount of time the mouse remained walking on the cylinder, without falling, was recorded. Each mouse was tested on a speed of 3-30 rpm and given three trials for any given day. The three trials were averaged to report a single value for an individual mouse, and then averages were calculated for all animals within a given treatment group. The first two trial days prior to immunization (day 0), served as practice trials.

[7] = tested on: EAE in C57BL/6 mice; assay: Standard EAE clinical score (0-5 scale), MOG 35-55 induced EAE, C57BL/6 mice; format: in vivo, mouse
From the text: as §2, §1, §3

Compound | Morris water maze learning (% duration in target quadrant) ([1]; OVX-Estriol NSE-Cre:ERβ fl/fl mice (neuronal ER beta knockout), listed as Estriol) | Morris water maze learning (time in target quadrant) [1] | Morris water maze learning (time in target quadrant) ([1]; listed as Estriol) | EAE amelioration [2] | CD45 staining in the CNS [3] | Iba-1 globoid cell staining [3] | Dissolution in sesame oil [4] | EAE score [5] | Rotarod times [6] | EAE score ([7]; DPN in 10% ethanol/miglyol vs miglyol vehicle (FIG. 4; strain not given)) | EAE score ([7]; female C57BL/6, DPN in 10% ethanol in sesame oil)
C[C@]12CC[C@@H]3c4ccc(O)cc4CC[C@H]3[C@@H]1C[C@@H](O)[C@@H]2O [estriol] | estrogen-mediated improvement is lost | ability to learn may be restored | improves performance |  |  |  |  |  |  |  | 
N#CC(Cc1ccc(O)cc1)c1ccc(O)cc1 (centres unmarked) [DPN, Diarylpropionitrile, reference compound] |  |  |  | ameliorated EAE | no significant effect on CD45 staining; also recorded: no effect on CD45 or Iba-1 globoid cell staining | no effect on CD45 or Iba-1 globoid cell staining | difficult to dissolve in sesame oil | significantly ameliorated EAE; also recorded: better EAE scores | better performance with the rotarod test | protects against EAE better; also recorded: better EAE scores | not effective
